# Experimental data as given in US10508104B2, “6-hydroxy-5-(phenyl/heteroarylsulfonyl)pyrimidin-4(1H)-one as APJ agonists” (Bristol-Myers Squibb Company, priority 2016, dated 2019).
# Target: human APJ receptor (Homo sapiens (Human), UniProt P35414)
# Test: Intracellular cAMP accumulation assay (APJ hcAMP, HTRF)
# Type: cell-based
# Conditions: human APJ, intracellular cAMP accumulation; read-out: Human APJ cAMP EC50 Potency range
# Description: Intracellular cAMP Accumulation Assay
# HEK293 cells stably expressing human APJ receptor were used to assess the activity of compounds. Cultured cells were detached and resuspended in the cAMP Homogeneous Time-Resolved Fluorescence (HTRF) assay buffer (Cisbio cat; #62AM4PEJ). The assay was performed in 384-well assay plates (Perkin-Elmer; cat #6008289) according to assay protocol provided by the manufacturer. Serial dilutions of a compound together with assay buffer containing […] and 2 μM forskolin were added to each well containing 5,000 cells and incubated for 30 minutes at room temperature. Subsequently, cAMP D2 reagent was added in the lysis buffer followed by the EuK antibody (Cisbio; cat #62AM4PEJ) and incubated for 60 min. The fluorescence emission ratio was measured using fluorometer. The intracellular cAMP concentrations (compound-stimulated inhibition of forskolin-mediated cAMP production) were calculated by extrapolation from a standard curve using known cAMP concentrations. The EC50 values were obtained by fitting the data to a sigmoidal concentration-response curve with variable slope.
# The EC50 value of each compound is presented at the end of the example description.
# The biological activity of the exemplified compounds of this invention determined by the assay described above is shown at the end of each example.
# Sequence of human APJ receptor (P35414 whole entry): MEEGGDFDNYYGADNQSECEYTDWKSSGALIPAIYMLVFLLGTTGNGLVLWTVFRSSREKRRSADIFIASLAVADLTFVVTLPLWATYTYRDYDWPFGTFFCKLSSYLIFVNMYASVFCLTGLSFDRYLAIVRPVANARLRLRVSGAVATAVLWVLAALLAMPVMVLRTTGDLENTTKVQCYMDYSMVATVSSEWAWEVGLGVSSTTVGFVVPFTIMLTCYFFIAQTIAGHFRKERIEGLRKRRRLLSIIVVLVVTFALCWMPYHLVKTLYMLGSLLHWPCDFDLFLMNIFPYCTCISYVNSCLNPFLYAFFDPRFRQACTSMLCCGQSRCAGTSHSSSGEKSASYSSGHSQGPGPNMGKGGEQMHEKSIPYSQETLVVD
row,EC50 [nM],SMILES
1,0.01 to 10,"CCCCc1nc(=O)c(S(=O)(=O)c2ccc(-c3ccc(C#N)nc3)cc2)c(O)n1-c1c(OC)cccc1OC [Example 16, 5-(4-{[2-butyl-1-(2,6-dimethoxyphenyl)-6-hydroxy-4-oxo-1,4-dihydropyrimidin-5-yl]sulfonyl)phenyl)pyri-dine-2-carbonitrile]"
2,0.01 to 10,"COc1cccc(OC)c1-n1c(CCC(C)C)nc(=O)c(S(=O)(=O)c2ccc(-c3ccc(C#N)nc3)cc2)c1O [Example 17, 5-(4-{[1-(2,6-dimethoxyphenyl)-6-hydroxy-2-(3-methylbutyl)-4-oxo-1,4-dihydropyrimidin-5-yl]sulfonyl}phenyl)pyri-dine-2-carbonitrile]"
3,0.01 to 10,"COc1cccc(OC)c1-n1c(CCC(C)C)nc(=O)c(S(=O)(=O)c2cccc(-c3ccc(F)cc3)c2)c1O [Example 18, 1-(2,6-dimethoxyphenyl)-5-[3-(4-fluorophenyl)benzene-sulfonyl]-6-hydroxy-2-(3-methylbutyl)-1,4-dihydropyrimidin-4-one]"
4,0.01 to 10,"COc1cccc(OC)c1-n1c(CCC(C)C)nc(=O)c(S(=O)(=O)c2cccc(-c3ccccc3)c2)c1O [Example 19, 1-(2,6-dimethoxyphenyl)-6-hydroxy-2-(3-methylbutyl)-5-(3-phenylbenzenesulfonyl)-1,4-dihydropyrimidin-4-one]"
5,0.01 to 10,"COc1cccc(OC)c1-n1c(CCC(C)C)nc(=O)c(S(=O)(=O)c2cccc(-c3cn(C)nc3C(F)(F)F)c2)c1O [Example 20, 1-(2,6-dimethoxyphenyl)-6-hydroxy-5-{3-[1-methyl-3-(trifluoromethyl)-1H-pyrazol-4-yl]benzenesulfonyl}-2-(3-methylbutyl)-1,4-dihydropyrimidin-4-one]"
6,10 to 100,"COc1cccc(OC)c1-n1c(CCC(C)C)nc(=O)c(S(=O)(=O)c2ccccc2-c2ccc(F)cc2)c1O [Example 21, 1-(2,6-dimethoxyphenyl)-5-[2-(4-fluorophenyl)benzene-sulfonyl]-6-hydroxy-2-(3-methylbutyl)-1,4-dihydropyrimidin-4-one]"
7,10 to 100,"COc1cccc(OC)c1-n1c(CCC(C)C)nc(=O)c(S(=O)(=O)c2ccccc2-c2ccccc2)c1O [Example 22, 1-(2,6-dimethoxyphenyl)-6-hydroxy-2-(3-methylbutyl)-5-(2-phenylbenzenesulfonyl)-1,4-dihydropyrimidin-4-one]"
8,0.01 to 10,"COc1cccc(OC)c1-n1c(CCC(C)C)nc(=O)c(S(=O)(=O)c2cccc(-c3ccc(F)nc3)c2)c1O [Example 23, 1-(2,6-dimethoxyphenyl)-5-[3-(6-fluoropyridin-3-yl)benzenesulfonyl]-6-hydroxy-2-(3-methylbutyl)-1,4-dihydropyrimidin-4-one]"
9,10 to 100,"COc1cccc(OC)c1-n1c(CCC(C)C)nc(=O)c(S(=O)(=O)c2ccccc2-c2ccc(F)nc2)c1O [Example 24, 1-(2,6-dimethoxyphenyl)-5-[2-(6-fluoropyridin-3-yl)benzenesulfonyl]-6-hydroxy-2-(3-methylbutyl)-1,4-dihydropyrimidin-4-one]"
10,100 to 300,"COc1cccc(OC)c1-n1c(CCC(C)C)nc(=O)c(S(=O)(=O)c2ccccc2-c2cn(C)nc2C(F)(F)F)c1O [Example 25, 1-(2,6-dimethoxyphenyl)-6-hydroxy-5-{2-[1-methyl-3-(trifluoromethyl)-1H-pyrazol-4-yl]benzenesulfonyl}-2-(3-methylbutyl)-1,4-dihydropyrimidin-4-one]"
11,0.01 to 10,"CCCCc1nc(=O)c(S(=O)(=O)c2ccc(-c3ccc(F)cc3C)cc2)c(O)n1-c1c(OC)cccc1OC [Example 26, 2-butyl-1-(2,6-dimethoxyphenyl)-5-[4-(4-fluoro-2-methylphenyl)benzenesulfonyl]-6-hydroxy-1,4-dihydropyrimidin-4-one]"
12,0.01 to 10,"CCCCc1nc(=O)c(S(=O)(=O)c2ccc(-c3ccnc(C)c3)cc2)c(O)n1-c1c(OC)cccc1OC [Example 27, 2-butyl-1-(2,6-dimethoxyphenyl)-6-hydroxy-5-[4-(2-methylpyridin-4-yl)benzenesulfonyl]-1,4-dihydropyrimidin-4-one]"
13,0.01 to 10,"CCCCc1nc(=O)c(S(=O)(=O)c2ccc(-c3ccc(N4CCOCC4)nc3)cc2)c(O)n1-c1c(OC)cccc1OC [Example 28, 2-butyl-1-(2,6-dimethoxyphenyl)-6-hydroxy-5-{4-[6-(morpholin-4-yl)pyridin-3-yl]benzenesulfonyl}-1,4-dihydropyrimidin-4-one]"
14,0.01 to 10,CCCCc1nc(=O)c(S(=O)(=O)c2ccc(-c3ccccc3OC3CC3)cc2)c(O)n1-c1c(OC)cccc1OC [Example 29]
15,0.01 to 10,"CCCCc1nc(=O)c(S(=O)(=O)c2ccc(-c3cccnc3OC)cc2)c(O)n1-c1c(OC)cccc1OC [Example 30, 2-butyl-1-(2,6-dimethoxyphenyl)-6-hydroxy-5-[4-(2-methoxypyridin-3-yl)benzenesulfonyl]-1,4-dihydropyrimidin-4-one]"
16,0.01 to 10,"CCCCc1nc(=O)c(S(=O)(=O)c2ccc(-c3ccc(C(C)(C)O)cc3)cc2)c(O)n1-c1c(OC)cccc1OC [Example 31, 2-butyl-1-(2,6-dimethoxyphenyl)-6-hydroxy-5-{4-[4-(2-hydroxypropan-2-yl)phenyl]benzene-sulfonyl}-1,4-dihydropyrimidin-4-one]"
17,0.01 to 10,"COc1cccc(OC)c1-n1c(COC(C)C)nc(=O)c(S(=O)(=O)c2ccc(-c3ccc(F)nc3)cc2)c1O [Example 32, 1-(2,6-dimethoxyphenyl)-5-[4-(6-fluoropyridin-3-yl)benzenesulfonyl]-6-hydroxy-2-[(propan-2-yloxy)methyl]-1,4-dihydropyrimidin-4-one]"
18,0.01 to 10,"COc1cccc(OC)c1-n1c(COC(C)C)nc(=O)c(S(=O)(=O)c2ccc(-c3ccccc3)cc2)c1O [Example 33, 1-(2,6-dimethoxyphenyl)-6-hydroxy-5-(4-phenylbenzenesulfonyl)-2-[(propan-2-yloxy)methyl]-1,4-dihydropyrimidin-4-one]"
19,0.01 to 10,"CCCCc1nc(=O)c(S(=O)(=O)c2ccc(-c3ccncc3F)cc2)c(O)n1-c1c(OC)cccc1OC [Example 34, 2-butyl-1-(2,6-dimethoxyphenyl)-5-[4-(3-fluoropyridin-4-yl)benzenesulfonyl]-6-hydroxy-1,4-dihydropyrimidin-4-one]"
20,0.01 to 10,"CCCCc1nc(=O)c(S(=O)(=O)c2ccc(-c3cc(F)ccc3F)cc2)c(O)n1-c1c(OC)cccc1OC [Example 35, 2-butyl-5-[4-(2,5-difluorophenyl)benzenesulfonyl]-1-(2,6-dimethoxyphenyl)-6-hydroxy-1,4-dihydropyrimidin-4-one]"
21,0.01 to 10,"CCCCc1nc(=O)c(S(=O)(=O)c2ccc(-c3ccc(Cl)c(F)c3)cc2)c(O)n1-c1c(OC)cccc1OC [Example 36, 2-butyl-5-[4-(4-chloro-3-fluorophenyl)benzene-sulfonyl]-1-(2,6-dimethoxyphenyl)-6-hydroxy-1,4-dihydropyrimidin-4-one]"
22,0.01 to 10,"CCCCc1nc(=O)c(S(=O)(=O)c2ccc(-c3cnc(F)c(Cl)c3)cc2)c(O)n1-c1c(OC)cccc1OC [Example 37, 2-butyl-5-[4-(5-chloro-6-fluoropyridin-3-yl)benzenesulfonyl]-1-(2,6-dimethoxyphenyl)-6-hydroxy-1,4-dihydropyrimidin-4-one]"
23,0.01 to 10,"CCCCc1nc(=O)c(S(=O)(=O)c2ccc(-c3ccc(CN(C)C)cc3)cc2)c(O)n1-c1c(OC)cccc1OC [Example 38, 2-butyl-1-(2,6-dimethoxyphenyl)-5-(4-{4-[(dimethyla,o)methyl]phenyl}benzenesulfonyl)-6-hydroxy-1,4-dihydropyrimidin-4-one]"
24,0.01 to 10,"CCCCc1nc(=O)c(S(=O)(=O)c2ccc(-c3ccc(C(=O)NC4CC4)cc3)cc2)c(O)n1-c1c(OC)cccc1OC [Example 39, 4-(4-{[2-butyl-1-(2,6-dimethoxyphenyl)-6-hydroxy-4-oxo-1,4-dihydropyrimidin-5-yl]sulfonyl}phenyl)-N-cyclopropylbenzamide]"
25,0.01 to 10,"CCCCc1nc(=O)c(S(=O)(=O)c2ccc(-c3ccncc3C)cc2)c(O)n1-c1c(OC)cccc1OC [Example 40, 2-butyl-1-(2,6-dimethoxyphenyl)-6-hydroxy-5-[4-(3-methylpyridin-4-yl)benzenesulfonyl]-1,4-dihydropyrimidin-4-one]"
26,0.01 to 10,"CCCCc1nc(=O)c(S(=O)(=O)c2ccc(-c3ccc(C4CC4)nc3)cc2)c(O)n1-c1c(OC)cccc1OC [Example 41, 2-butyl-5-[4-(6-cyclopropylpyridin-3-yl)benzenesulfonyl]-1-(2,6-dimethoxyphenyl)-6-hydroxy-1,4-dihydropyrimidin-4-one]"
27,0.01 to 10,"CCCCc1nc(=O)c(S(=O)(=O)c2ccc(-c3cccc(F)n3)cc2)c(O)n1-c1c(OC)cccc1OC [Example 42, 2-butyl-1-(2,6-dimethoxyphenyl)-5-[4-(6-fluoropyridin-2-yl)benzenesulfonyl]-6-hydroxy-1,4-dihydropyrimidin-4-one]"
28,0.01 to 10,"CCCCc1nc(=O)c(S(=O)(=O)c2ccc(-c3ccnc(OC)c3)cc2)c(O)n1-c1c(OC)cccc1OC [Example 43, 2-butyl-1-(2,6-dimethoxyphenyl)-6-hydroxy-5-[4-(2-methoxypyridin-4-yl)benzenesulfonyl]-1,4-dihydropyrimidin-4-one]"
29,0.01 to 10,"CCCCc1nc(=O)c(S(=O)(=O)c2ccc(-c3ccc(C(N)=O)cc3)cc2)c(O)n1-c1c(OC)cccc1OC [Example 44, 4-(4-{[2-butyl-1-(2,6-dimethoxyphenyl)-6-hydroxy-4-oxo-1,4-dihydropyrimidin-5-yl]sulfonyl}phenyl) benzamide]"
